Reference: article PMC6747225 (International Journal of Environmental Research and Public …, 2019)

Tests used:
[1] = tested on: CY2D6 enzyme; settings: humans and mammals; cited from earlier work
[2] = tested on: superoxide dismutase (SOD); assay: Superoxide dismutase (SOD) activity in fish liver; assay type: in vivo, Carassius auratus; settings: SER alone 5 μg·L^−1 compared to control, seven days
Experimental: A dechlorinated water control treatment and solvent control treatment (0.1% methanol) were also set in the exposure treatments. Each treatment was prepared in six replicate tanks (30 L) with four fish per tank. Fish were not fed during the exposure period. The exposure solutions were refreshed every 24 h. After the exposure experiment, six fish were sampled in each treatment for biochemical assay and chemical analysis. The liver, brain, gills, and muscle were dissected, immediately frozen in liquid nitrogen, and stored at −80 °C until the assays. The remaining 18 fish in each treatment were used for behavioral trials at the end of exposure.
The tissue sample was homogenized in chilled physiological saline solution (1:10, w/v). The homogenates were then centrifuged for 10 min (10,000 g) at 4 °C. The obtained supernatant was used to determine enzyme activity, MDA content, and protein concentration using bioassay kits according to the manufacturer’s protocol. Enzyme activity is reported as unit (U) mg^−1 protein, and MDA content is expressed in nmol mg^−1 protein.

| SMILES | Inhibition of the CY2D6 enzyme [1] | SOD activity [2] |
| --- | --- | --- |
| CN(C)CCOC(c1ccccc1)c1ccccc1 [DPH, diphenhydramine] | strong inhibitor |  |
| CN[C@H]1CC[C@@H](c2ccc(Cl)c(Cl)c2)c2ccccc21 [SER, sertraline] |  | not significantly changed |
